This series in a line: GSH incorporation experiments. The following applies: 10 μM compound, GSH 5 mM, 37 °C, 30 min; for %GSH − HLM: absence of HLM; for % GSH + HLM: presence of HLM. The class given is in vitro ADME, human.

Regarding `Clc1ncc(Cl)c(-n2ccc3ncncc32)n1` [Compound 20], the “%GSH − HLM” value amounted to 2.5% and the “% GSH + HLM” value is 99.9%. The corresponding values for `Clc1ncc(Cl)c(-c2c[nH]c3ncncc23)n1` [Compound 21] are 0% and 16.1%. Turning to `Clc1nccc(-n2ccc3ncccc32)n1` [Compound 8], the “%GSH − HLM” value came out at 0.1% and the “% GSH + HLM” value worked out at 53.5%. With `Clc1ncc(Cl)c(-n2ccc3ncccc32)n1` [Compound 1], the “% GSH + HLM” value was 96.0%. Consider `N#Cc1ccc(Cl)nc1-n1ccc2ncncc21` [Compound 23], for which the “%GSH − HLM” value came out at 2.8% and the “% GSH + HLM” value stood at 49.9%.

(Values after PMC9290008 (ACS Medicinal Chemistry Letters, 2022).)
